# Assay results as given in PubChem BioAssay (NCI).
#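 96-well plates; 48 h exposure; 5 concentrations. Endpoints by linear interpolation between flanking doses. Not reached: highest tested concentration assigned. GI50 = concentration required for 50% inhibition of growth. TGI denotes the concentration required for complete inhibition of growth.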
# Legend:
# Experiment in all cases: NCI tumour cell line growth inhibition, 48 h
# 786-0 renal = system: 786-0 renal
# A498 renal = system: A498 renal
# A549 NSCLC = system: A549 NSCLC
# ACHN renal = system: ACHN renal
# BT-549 breast = system: BT-549 breast
# CAKI-1 renal = system: CAKI-1 renal
# CCRF-CEM leukemia = system: CCRF-CEM leukemia
# COLO 205 colon = system: COLO 205 colon
# DU-145 prostate = system: DU-145 prostate
# EKVX NSCLC = system: EKVX NSCLC
# HCC-2998 colon = system: HCC-2998 colon
# HCT-116 colon = system: HCT-116 colon
# HCT-15 colon = system: HCT-15 colon
# HL-60(TB) leukemia = system: HL-60(TB) leukemia
# HOP-62 NSCLC = system: HOP-62 NSCLC
# HOP-92 NSCLC = system: HOP-92 NSCLC
# HS 578T breast = system: HS 578T breast
# HT29 colon = system: HT29 colon
# IGROV1 ovarian = system: IGROV1 ovarian
# K-562 leukemia = system: K-562 leukemia
# KM12 colon = system: KM12 colon
# M14 melanoma = system: M14 melanoma
# MALME-3M melanoma = system: MALME-3M melanoma
# MCF7 breast = system: MCF7 breast
# MDA-MB-231 breast = system: MDA-MB-231 breast
# MDA-MB-435 = system: MDA-MB-435
# MOLT-4 leukemia = system: MOLT-4 leukemia
# NCI-H226 lung = system: NCI-H226 lung
# NCI-H23 lung = system: NCI-H23 lung
# NCI-H460 lung = system: NCI-H460 lung
# NCI-H522 lung = system: NCI-H522 lung
# NCI/ADR-RES ovarian = system: NCI/ADR-RES ovarian
# OVCAR-4 ovarian = system: OVCAR-4 ovarian
# OVCAR-5 ovarian = system: OVCAR-5 ovarian
# OVCAR-8 ovarian = system: OVCAR-8 ovarian
# PC-3 prostate = system: PC-3 prostate
# RPMI-8226 leukemia = system: RPMI-8226 leukemia
# RXF 393 renal = system: RXF 393 renal
# SF-268 CNS = system: SF-268 CNS
# SF-295 CNS = system: SF-295 CNS
# SF-539 CNS = system: SF-539 CNS
# SK-MEL-2 melanoma = system: SK-MEL-2 melanoma
# SK-MEL-28 melanoma = system: SK-MEL-28 melanoma
# SK-MEL-5 melanoma = system: SK-MEL-5 melanoma
# SK-OV-3 ovarian = system: SK-OV-3 ovarian
# SN12C renal = system: SN12C renal
# SNB-19 CNS = system: SNB-19 CNS
# SNB-75 CNS = system: SNB-75 CNS
# SR leukemia = system: SR leukemia
# SW-620 colon = system: SW-620 colon
# T-47D breast = system: T-47D breast
# TK-10 renal = system: TK-10 renal
# U251 CNS = system: U251 CNS
# UACC-257 melanoma = system: UACC-257 melanoma
# UACC-62 melanoma = system: UACC-62 melanoma
# UO-31 renal = system: UO-31 renal
compound,measurement,setting,value
O=C(Nc1cccc(C(F)(F)F)c1)c1cc(-c2ccc(F)cc2F)ccc1O,GI50,786-0 renal,3.27 µM
same,TGI,786-0 renal,12 µM
same,GI50,A498 renal,0.923 µM
same,TGI,A498 renal,3.21 µM
same,GI50,A549 NSCLC,3.26 µM
same,TGI,A549 NSCLC,> 100 µM
same,GI50,ACHN renal,2.76 µM
same,TGI,ACHN renal,8.67 µM
same,GI50,BT-549 breast,2.13 µM
same,TGI,BT-549 breast,7.24 µM
same,GI50,CAKI-1 renal,1.79 µM
same,TGI,CAKI-1 renal,5.69 µM
same,GI50,CCRF-CEM leukemia,2.97 µM
same,TGI,CCRF-CEM leukemia,48.6 µM
same,GI50,COLO 205 colon,3.22 µM
same,TGI,COLO 205 colon,10.2 µM
same,GI50,DU-145 prostate,3.55 µM
same,TGI,DU-145 prostate,> 100 µM
same,GI50,EKVX NSCLC,2.28 µM
same,TGI,EKVX NSCLC,8.98 µM
same,GI50,HCC-2998 colon,3.07 µM
same,TGI,HCC-2998 colon,13.2 µM
same,GI50,HCT-116 colon,1.89 µM
same,TGI,HCT-116 colon,4.98 µM
same,GI50,HCT-15 colon,2.21 µM
same,TGI,HCT-15 colon,6.99 µM
same,GI50,HL-60(TB) leukemia,2.06 µM
same,TGI,HL-60(TB) leukemia,4.97 µM
same,GI50,HOP-62 NSCLC,2.93 µM
same,TGI,HOP-62 NSCLC,9.31 µM
same,GI50,HOP-92 NSCLC,0.824 µM
same,TGI,HOP-92 NSCLC,4.28 µM
same,GI50,HS 578T breast,2.47 µM
same,TGI,HS 578T breast,9.63 µM
same,GI50,HT29 colon,3.27 µM
same,TGI,HT29 colon,16.9 µM
same,GI50,IGROV1 ovarian,2.82 µM
same,TGI,IGROV1 ovarian,17 µM
same,GI50,K-562 leukemia,2.23 µM
same,TGI,K-562 leukemia,> 100 µM
same,GI50,KM12 colon,2.44 µM
same,TGI,KM12 colon,6.12 µM
same,GI50,M14 melanoma,3.02 µM
same,TGI,M14 melanoma,10.5 µM
same,GI50,MALME-3M melanoma,1.77 µM
same,TGI,MALME-3M melanoma,4.65 µM
same,GI50,MCF7 breast,2.18 µM
same,TGI,MCF7 breast,9.29 µM
same,GI50,MDA-MB-231 breast,2.01 µM
same,TGI,MDA-MB-231 breast,5.17 µM
same,GI50,MDA-MB-435,2.5 µM
same,TGI,MDA-MB-435,7.11 µM
same,GI50,MOLT-4 leukemia,2.13 µM
same,TGI,MOLT-4 leukemia,5.58 µM
same,GI50,NCI-H226 lung,2.01 µM
same,TGI,NCI-H226 lung,5.34 µM
same,GI50,NCI-H23 lung,1.89 µM
same,TGI,NCI-H23 lung,5.58 µM
same,GI50,NCI-H460 lung,2.67 µM
same,TGI,NCI-H460 lung,13.3 µM
same,GI50,NCI-H522 lung,1.32 µM
same,TGI,NCI-H522 lung,9.58 µM
same,GI50,NCI/ADR-RES ovarian,2.57 µM
same,TGI,NCI/ADR-RES ovarian,8.63 µM
same,GI50,OVCAR-4 ovarian,3.11 µM
same,TGI,OVCAR-4 ovarian,95.7 µM
same,GI50,OVCAR-5 ovarian,3.41 µM
same,TGI,OVCAR-5 ovarian,26.4 µM
same,GI50,OVCAR-8 ovarian,2.92 µM
same,TGI,OVCAR-8 ovarian,> 100 µM
same,GI50,PC-3 prostate,2.89 µM
same,TGI,PC-3 prostate,15.1 µM
same,GI50,RPMI-8226 leukemia,1.44 µM
same,TGI,RPMI-8226 leukemia,5.28 µM
same,GI50,RXF 393 renal,2.06 µM
same,TGI,RXF 393 renal,6.22 µM
same,GI50,SF-268 CNS,2.67 µM
same,TGI,SF-268 CNS,16.7 µM
same,GI50,SF-295 CNS,1.75 µM
same,TGI,SF-295 CNS,3.57 µM
same,GI50,SF-539 CNS,3.05 µM
same,TGI,SF-539 CNS,11 µM
same,GI50,SK-MEL-2 melanoma,1.46 µM
same,TGI,SK-MEL-2 melanoma,4.95 µM
same,GI50,SK-MEL-28 melanoma,2.17 µM
same,TGI,SK-MEL-28 melanoma,7.58 µM
same,GI50,SK-MEL-5 melanoma,1.25 µM
same,TGI,SK-MEL-5 melanoma,2.86 µM
same,GI50,SK-OV-3 ovarian,2.43 µM
same,TGI,SK-OV-3 ovarian,8.62 µM
same,GI50,SN12C renal,1.99 µM
same,TGI,SN12C renal,7.61 µM
same,GI50,SNB-19 CNS,3.08 µM
same,TGI,SNB-19 CNS,73.5 µM
same,GI50,SNB-75 CNS,1.52 µM
same,TGI,SNB-75 CNS,4.25 µM
same,GI50,SR leukemia,2.76 µM
same,TGI,SR leukemia,14 µM
same,GI50,SW-620 colon,3.61 µM
same,TGI,SW-620 colon,14.5 µM
same,GI50,T-47D breast,2.2 µM
same,TGI,T-47D breast,8.64 µM
same,GI50,TK-10 renal,4.55 µM
same,TGI,TK-10 renal,30.5 µM
same,GI50,U251 CNS,2.99 µM
same,TGI,U251 CNS,17.5 µM
same,GI50,UACC-257 melanoma,1.5 µM
same,TGI,UACC-257 melanoma,6.97 µM
same,GI50,UACC-62 melanoma,1.16 µM
same,TGI,UACC-62 melanoma,4.22 µM
same,GI50,UO-31 renal,2.46 µM
same,TGI,UO-31 renal,10.6 µM
